Data: patent US20190029951A1, “EXTENDED RELEASE FORMULATIONS OF VELIPARIB FOR THE TREATMENT OF CANCER” (AbbVie Inc., priority 2016, published 2019)

Columns and labels:
Type in all cases: in vivo, human
breast cancer = assay: Best tumor response in patients with breast cancer; conditions: patients with BC, 6/16
Excerpt: (§1) The term “efficacy” as used herein refers to an inhibitory effect on tumor growth, which can be manifested as slowing, retarding, arresting or even reversing (i.e., shrinking) growth of the tumor. In some embodiments, the effect on tumor growth is associated with suppression by a PARP inhibitory compound, for example Veliparib. In clinical sittings, efficacy can be measured by one skilled in the art and by a number of efficacy endpoints, for example, overall survival (OS), progression free survival (PPS), time to progression (TTP), time to treatment failure (TTF), event-free survival (EFS), time to next treatment (TINT), objective response rate (ORR), duration of response (DoR), and/or response rate, for example, partial response (PR) or complete response (CR). The term “partial response” or “PR” as used herein, means a partial response of the target lesion, indicated by at least a 30% decrease in the sum of diameters of target lesions, taking as reference the baseline sum diameters.
(§2) Eligible patients had metastatic BRCA+ cancer, BRCA± high-grade serious ovarian/primary peritoneal/fallopian tube cancer (OC), (part 1/2), or BRCA+ breast cancer (BC), or OC (part 3).
(§3) Best tumor responses were compared between patients from Part 1 who received IR-v as the primary treatment and patients in Part 2 and Part 3 of the study who received ER-v formulation C. […]

ovarian cancer = assay: Best tumor response in patients with ovarian cancer; conditions: patients with OC, 8/44
Excerpt: as §1, §2, §3

[1] = tested on: tumor growth (sum of the longest diameter for all target lesions); assay: Exposure-response tumor growth inhibition model (NONMEM nonlinear mixed-effects); conditions: final tumor growth inhibition model
Excerpt: Fifty-four subjects (39 with ovarian, fallopian tube, or peritoneal cancers, 14 with breast cancer, and 1 with prostate cancer) were included in an exposure-response analysis using nonlinear mixed-effects modeling approach with NONMEM software (version 7.3.0) (Table 6).
Veliparib pharmacokinetics (PK) was described with a one-compartment model with first-order elimination process (kel) (FIG. 4). For the IR formulation, absorption was modeled as a first-order process (ka) (Equations 1a and 1b). For the ER formulation, the absorption was modeled as a zero-order process (Dose/Duration) (Equations 2a and 2b).
Subsequently, the relationship between veliparib PK exposure and longitudinal tumor growth inhibition was analyzed. The time course of tumor growth inhibition was modeled using an exponential tumor growth model represented by a single tumor compartment linked to veliparib central compartment with linear inhibitory effect of veliparib on tumor growth (see FIG. 4 and Equation 3). The possible measurement error at the baseline was accounted for by allowing individual deviations from the observed baseline as between-subject variability. Inter-individual variability was incorporated on the slope and estimated baseline using exponential function and the residual variability was characterized using additive error. […]

`C[C@]1(c2nc3c(C(N)=O)cccc3[nH]2)CCCN1` [veliparib, 2-[(2R)-2-methylpyrrolidin-2-yl]-1H-benzimidazole-4-carboxamide] was tested, and the “Confirmed and unconfirmed responses” value (breast cancer) was 38%, the “Confirmed and unconfirmed responses” value (ovarian cancer) was 18% and the “BRCA effect on Slope (i.e., ratio of Slope for BRCA-mut to Slope for BRCA-wt), Population Estimate” value [1] was 1.72.
